Data: US11987579B2 (Duke University, priority 2018, dated 2024)

Assays:
Format in all cases: cell-based
six CRC tumor cell lines = test: MTS assay, summary over six CRC tumor cell lines; conditions: read-out: IC50 values, range over the six CRC cell lines
Method: (§1) Colon cancer cell lines SW948, HT-29, HCT116, CRC240, SW480, and DLD-1 were used in the cell proliferation assay. All cell lines, except CRC240, were from ATCC. CRC240, a colorectal cancer patient derived xenograft (PDX) cell line, was obtained from the Hsu lab (Duke University). Generation of CRC240 cell line was previously reported. SW948 cells were cultured in Leibovitz's medium (Gibco, catalog number 21083-027). HT-29 and HCT116 cells were cultured in McCoy's 5A medium (Gibco, catalog number 16600-082). SW480 cells were cultured in MEM medium. CRC240 and DLD-1 cells were cultured in RPMI medium (Gibco, catalog number 11875-093). All media were supplemented with 10% FBS and 100 U/ml penicillin-streptomycin. […] IC50 values calculated using Graphpad Prism.

SW948 = test: Inhibition of cell proliferation by MTS assay, SW948; conditions: Homo sapiens; SW948, MTS assay at 72 hr
Method: as §1

pAMPK = test: Evaluation of phospho-AMPK levels by Western blot; conditions: CCD841Co cells, whole cell lysate, vs DMSO control
Method: 12-well plates were incubated with 250 μL poly-D-lysine solution (Sigma, catalog number P6407) at 10 μg/mL for 30 minutes at room, temperature, the poly-D-lysine solution was removed, and the wells washed twice with 500 μL distilled water. Colonic epithelial CCD841Co cells were cultured in MEM medium plus 1 mM sodium pyruvate (Invitrogen, catalog number 11360070), lx MEM Non-Essential Amino Acids (Gibco catalog number 11140), 10% FBS, and 100 U/ml penicillinstreptomycin. 0.27 million CCD841Co cells per well were plated in culture medium in the poly-Dlysine coated 12-well plates and allowed to attach overnight at 37° C. in a 5% CO2 incubator. The next morning, the media was replaced with DMSO vehicle in cell media, DK419 or niclosamidein DMSO diluted to the indicated concentration with DMEM medium (Sigma, catalog number D5030) supplemented with 2 mM sodium pyruvate and 2 mM L-glutamine (Invitrogen, catalog number 25030081). […] After 30 minutes treatment, the media was removed and the cells were lysed with 120 μL 1×Laemmii sample buffer. Immunoblots of the cell lysates using antibodies to phospho-AMPK (pAMPK) (Cell Signaling Technology, catalog number 2535) and AMPK (Cell Signaling Technology, catalog number 2532) was used to detect phosphorylated AMPK ([…]) levels and total AMPK levels, respectively. Antibodies to β-actin were used as loading controls.

SW480 = test: Inhibition of cell proliferation by MTS assay, SW480; conditions: Homo sapiens; SW480, MTS assay at 72 hr
Method: as §1

CCD841Co colonic cells = test: Assessment of oxygen consumption rate (OCR), Seahorse XFp; conditions: 1 μM, CCD841Co cells, basal conditions, vs DMSO
Method: Colonic epithelial CCD841Co cells were plated in Seahorse XFp 8-well miniplates at 8000 cells/well and allowed to attach overnight at 37° C. in a 5% CO2 incubator. Polarographic analysis of OCR was performed using Seahorse XF Analyzer (Agilent Technologies, Santa Clara, Calif.) and a Seahorse XFp Cell Mito Stress Test Kit (Agilent Technologies, catalog number 103010-100). […] Data were analyzed by the software Wave (Version 2.3.0.20, Agilent Technologies, Santa Clara, Calif.).

HCT116 = test: Inhibition of cell proliferation by MTS assay, HCT116; conditions: Homo sapiens, HCT-116; HCT116, MTS assay at 72 hr
Method: as §1

HT-29 = test: Inhibition of cell proliferation by MTS assay, HT-29; conditions: Homo sapiens; HT-29, MTS assay at 72 hr
Method: as §1

DLD-1 = test: Inhibition of cell proliferation by MTS assay, DLD-1; conditions: Homo sapiens; DLD-1, MTS assay at 72 hr
Method: as §1

Fzd1-GFP = test: Frizzled 1-GFP (Fzd1-GFP) internalization assay; conditions: 12.5 μM, 6 h, 37° C., U20S cells stably expressing Fzd1-GFP, confocal microscopy, vs DMSO
Method: The Frizzled 1-GFP (Fzd1-GFP) assay was performed following a procedure similar to that previously reported (Chen et al., Biochemistry 2009, 48, 10267). Briefly, U20S cells stably expressing Fzd1-GFP were plated in con local dishes and incubated at 37° C. with 5% CO2. After 24 hours the cells were treated with 12.5 μM of test compound (dissolved in DMSO) or DMSO alone in media as a control for 6 hours at 37° C. and then fixed with 4% paraformaldehyde. The cells were then examined by microscopy using an LSM 510-Meta confocal microscope (Carl Zeiss, Thornwood, N.Y., USA) equipped with 40× and 100×apo chromat objectives. GFP was excited using a 488-nm argon laser line. Images were processed using the LSM software Image Browser.

CRC240 = test: Inhibition of cell proliferation by MTS assay, CRC240; conditions: Homo sapiens; CRC240, MTS assay at 72 hr
Method: as §1

Wnt/β-catenin signaling = test: Wnt3A-stimulated TOPFlash reporter assay; conditions: Homo sapiens; HEK293 stably expressing TOPFlash and Renilla luciferase, Wnt3A-conditioned medium, 0.04 to 10 μM, mean±SEM, n=3; read-out: IC50, inhibition of Wnt/β-catenin signaling in TOPFlash assay
Method: Wnt-3A conditioned medium was prepared using L WNT-3A cells (ATCC® CRL-2647™) purchased from ATCC, and was obtained using published protocols (http://www.atcc.org/Products/All/CRL-2647.aspx#culturemethod). HEK293 were stably transfected with p8×TOPFlash, Renilla luciferase plasmid pRL-TK, and pLKO.1. Briefly, stably transfected cells were seeded in 100 μL of cell growth medium (MEM, Sigma, catalog number M4655) supplemented with 10% FBS (Atlanta Biologieals, catalog number S11050), and 1 μg/mL puromycin (Sigma, catalog number P8833), 100 U/mL penicillin-streptomycin (Invitrogen, catalog number 15140122)/well in 96-well plates and incubated in 5% CO2 at 37° C. overnight to 100% confluency. Fifty microliters of Wnt-3A conditioned medium containing the chemical compounds to be tested or DMSO was added to each well. After 6 h treatment, the cell were washed once with PBS and lysed with 55 μL of Passive Lysis Buffer supplied in the Dual-Luciferase Reporter Assay kit (Promega, Catalog number E1960). Twenty-five microliters of cell lysate was used for measuring luciferase activity in a […] plate reader (FluoStar Optima, BMG Labtech, Chicago, Ill.).

IC50 (six CRC tumor cell lines) [nM]	IC50 (SW948) [nM]	IC50 (SW480) [nM]	IC50 (HCT116) [nM]	IC50 (HT-29) [nM]	IC50 (DLD-1) [nM]	Fzd1-GFP receptor internalization (green fluorescent internal puncta) (Fzd1-GFP)	IC50 (Wnt/β-catenin signaling) [nM]	Compound	pAMPK levels by Western blot (pAMPK)	oxygen consumption rate (CCD841Co colonic cells)	IC50 (CRC240) [nM]
40 to 350	40	320	230	110	350	robust punctate pattern	190 ± 80	O=C(Nc1ccc(C(F)(F)F)cc1)c1cc(Cl)cc2nc(C(F)(F)F)[nH]c12 [DK419, 6-chloro-2-(trifluoromethyl)-N-(4-(trifluoromethyl)phenyl)-1H-benzo[d]imidazole-4-carboxamide]	increased the levels of pAMPK	increases the rate of oxygen consumption	310
100 to 1780	100	740	310	100	1780	robust punctate pattern	450 ± 140	O=C(Nc1ccc([N+](=O)[O-])cc1Cl)c1cc(Cl)ccc1O [Niclosamide, reference compound]	increased pAMPK levels	increases the oxygen consumption rate	680
